Experimental data as given in patent publication US5646173A, “Tricyclic pyrrole derivatives useful as 5-HT selective agents” (Hoffmann-La Roche Inc., priority 1993, dated 1997).
Structures can show the parent of a compound that is named as a salt. Where two headings read alike, the source gives them in different places.

Assays:
5HT1A receptor = assay: 3H-8-OH-DPAT binding assay (Method I a); conditions: read-out: IC50, test method a
Procedure: The binding of the compounds of formula I in accordance with the invention to serotonin receptors was determined in vitro by standard methods. The preparations were investigated in accordance with the assays given hereinafter: […]

5HT2C receptor [1] = biological target: T1, 5HT2C receptor (Sus scrofa, UniProt K7GSR7); assay: 3H-mesulergine binding assay (Method I b)
T1 construct: from tissue
T1 sequence (K7GSR7 1-457): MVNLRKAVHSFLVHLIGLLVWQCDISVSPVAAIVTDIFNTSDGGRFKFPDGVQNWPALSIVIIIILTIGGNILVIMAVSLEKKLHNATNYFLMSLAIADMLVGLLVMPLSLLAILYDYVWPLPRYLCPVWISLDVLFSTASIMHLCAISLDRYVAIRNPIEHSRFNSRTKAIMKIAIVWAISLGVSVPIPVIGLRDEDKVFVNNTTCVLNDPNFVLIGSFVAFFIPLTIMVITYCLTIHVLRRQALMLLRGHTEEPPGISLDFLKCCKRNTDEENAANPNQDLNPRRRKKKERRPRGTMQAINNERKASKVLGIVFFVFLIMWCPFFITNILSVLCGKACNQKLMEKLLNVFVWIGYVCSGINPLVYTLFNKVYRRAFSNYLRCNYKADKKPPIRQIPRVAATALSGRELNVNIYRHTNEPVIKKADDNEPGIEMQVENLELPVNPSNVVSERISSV
Procedure: (§1) The binding of the compounds of formula I in accordance with the invention to serotonin receptors was determined in vitro by standard methods. The preparations were investigated in accordance with the assays given hereinafter:
b) For the binding to the 5HT2C receptor in accordance with the ^3 H-mesulergine binding assay according to the method of A. Pazos et al., Europ. J. Pharmacol. 106, 539-546 or. D. Hoyer, Receptor Research 8, 59-81 (1988).

5HT2A receptor [2] = biological target: T2, 5HT2A receptor (Rattus norvegicus, UniProt P14842); assay: biochemical; format: binding
T2 construct: from tissue; host or cells: rat frontal cortex membranes (inferred from the cited method)
T2 sequence (P14842 whole entry): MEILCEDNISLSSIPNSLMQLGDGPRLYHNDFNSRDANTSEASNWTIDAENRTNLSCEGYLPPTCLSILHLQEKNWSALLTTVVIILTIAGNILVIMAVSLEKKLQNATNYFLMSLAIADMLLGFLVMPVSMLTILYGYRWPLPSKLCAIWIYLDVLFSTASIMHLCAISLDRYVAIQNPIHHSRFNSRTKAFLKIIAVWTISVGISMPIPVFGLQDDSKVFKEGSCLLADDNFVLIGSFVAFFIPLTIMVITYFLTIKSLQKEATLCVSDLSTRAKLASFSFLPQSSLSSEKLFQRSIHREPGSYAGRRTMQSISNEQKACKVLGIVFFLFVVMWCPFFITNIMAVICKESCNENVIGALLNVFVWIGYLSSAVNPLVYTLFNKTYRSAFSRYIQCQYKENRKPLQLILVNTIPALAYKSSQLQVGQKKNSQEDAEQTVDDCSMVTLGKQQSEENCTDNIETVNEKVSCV
Procedure: as §1
c) For the binding to the 5HT2A receptor in accordance with the ^3 H-ketanserine binding assay according to the method of J. E. Leysen, Molecular Pharmacology 21, 301-304 (1981).

human-5HT1A receptors = biological target: T3, human-5HT1A receptors (Homo sapiens, UniProt P08908); assay: [3H]-5-HT displacement on recombinant human 5HT1A receptors expressed in 3T3 cells of mice (Method II a); format: binding
T3 construct: expressed in transfected cells; host or cells: mouse 3T3 cells
T3 sequence (P08908 1-422): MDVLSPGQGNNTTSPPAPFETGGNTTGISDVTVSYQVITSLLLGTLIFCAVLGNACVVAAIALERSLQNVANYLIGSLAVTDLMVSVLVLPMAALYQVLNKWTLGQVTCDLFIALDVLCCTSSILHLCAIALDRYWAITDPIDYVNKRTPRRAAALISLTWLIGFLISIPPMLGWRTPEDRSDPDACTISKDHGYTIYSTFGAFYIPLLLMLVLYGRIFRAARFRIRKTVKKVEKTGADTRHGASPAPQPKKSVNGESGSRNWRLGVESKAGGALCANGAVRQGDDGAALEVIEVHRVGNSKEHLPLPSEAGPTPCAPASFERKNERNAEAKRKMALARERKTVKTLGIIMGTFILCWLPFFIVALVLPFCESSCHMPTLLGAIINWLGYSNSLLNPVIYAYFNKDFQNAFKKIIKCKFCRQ
Source text: [L] is the concentration of ligand and the KD value is the dissociation constant of the ligand.

5HT2A receptor [3] = biological target: T4, 5HT2A receptor (Homo sapiens, UniProt P28223); assay: [3H]-DOB binding assay (Method II c)
T4 construct: expressed in transfected cells; host or cells: transfected mammalian cells (inferred from the cited method)
T4 sequence (P28223 whole entry): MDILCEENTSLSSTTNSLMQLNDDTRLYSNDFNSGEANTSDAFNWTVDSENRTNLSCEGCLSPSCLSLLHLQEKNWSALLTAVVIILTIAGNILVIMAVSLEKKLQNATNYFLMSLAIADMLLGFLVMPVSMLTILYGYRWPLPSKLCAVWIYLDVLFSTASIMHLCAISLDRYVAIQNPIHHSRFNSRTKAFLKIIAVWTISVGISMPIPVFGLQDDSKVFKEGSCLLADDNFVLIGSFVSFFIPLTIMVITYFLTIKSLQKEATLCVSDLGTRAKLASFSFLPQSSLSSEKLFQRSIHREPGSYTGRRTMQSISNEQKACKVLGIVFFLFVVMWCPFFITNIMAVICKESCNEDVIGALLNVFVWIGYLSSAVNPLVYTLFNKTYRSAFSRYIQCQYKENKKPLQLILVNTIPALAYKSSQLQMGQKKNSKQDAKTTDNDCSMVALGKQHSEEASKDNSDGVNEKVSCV
Source text: c) For the binding to the 5HT2A receptor in accordance with the [3H]-DOB binding assay according to the method of T. Branchek et al., Molecular Pharmacology 38, 604-609 (1990).
(§2) The pki values (pki =-log^10 Ki) of the test substances are given. […] [L] is the concentration of ligand and the KD value is the dissociation constant of the ligand.

5HT2C receptor [4] = biological target: T5, 5HT2C receptor (Rattus norvegicus, UniProt P08909); assay: [3H]-5-HT binding assay (Method II b); design: expressed in transfected cells; host or cells: clonal 5-HT1C cell line
T5 sequence (P08909 33-460): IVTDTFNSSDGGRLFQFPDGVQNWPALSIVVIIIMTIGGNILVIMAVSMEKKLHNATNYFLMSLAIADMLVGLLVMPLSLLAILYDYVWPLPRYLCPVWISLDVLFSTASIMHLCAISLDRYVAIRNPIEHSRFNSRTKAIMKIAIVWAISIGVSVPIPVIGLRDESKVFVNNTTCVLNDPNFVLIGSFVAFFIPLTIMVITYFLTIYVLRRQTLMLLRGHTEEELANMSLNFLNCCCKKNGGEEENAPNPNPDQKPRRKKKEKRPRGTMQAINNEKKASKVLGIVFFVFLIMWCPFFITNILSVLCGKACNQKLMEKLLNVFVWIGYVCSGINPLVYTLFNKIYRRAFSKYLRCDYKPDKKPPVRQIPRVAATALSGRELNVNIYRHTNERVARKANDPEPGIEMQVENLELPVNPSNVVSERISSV
Source text: b) For the binding to the 5HT2C receptor in accordance with the [3H]-5-HT binding assay according to the method of S. J. Peroutka et al., Brain Research 584, 191-196 (1992).
as §2

[5] = 5HT2C, 3H-mesulergine, Method I, read-out: IC50, test method b
[6] = 5HT2C, [3H]-5-HT, Method II, read-out: pki, test method b (converted)

Row | SMILES | IC50 (5HT1A receptor) [µM] | IC50 (5HT2C receptor [1]) [µM] | IC50 (5HT2A receptor [2]) [µM] | other results
1 | CC(N)Cn1ccc2c1-c1cc(Cl)ccc1C2 (racemic) [Example 21, (RS)-2-(7-chloro-1,4-dihydro-indeno[1,2-b]pyrrol-1-yl)-1-methyl-ethylaminefumarate (1:0.5)] | 1.35 | 0.0566 | 2.54 | –
2 | COc1ccc2c(c1)-c1c(ccn1CC(C)N)C2 (racemic) [Example 22, (RS)-2-(7-methoxy-1,4-dihydro-indeno[1,2-b]pyrrol-1-yl)-1-methyl-ethylamine fumarate (1:0.5)] | 1.59 | 0.0304 | 1.4 | –
3 | CC(N)Cn1ccc2c1-c1ccccc1OC2 (racemic) [Example 34, (RS)-1-(1,4-dihydro-[1]benzopyrano-[4,3-b]pyrrol-1-yl)-1-methyl-ethylaminefumarate (1:0.5)] | 1.62 | – | 2.64 | IC50 (5HT2C receptor [1]; [5]): 0.107 µM
4 | CC(N)Cn1ccc2c1-c1cccc(Cl)c1C2 (racemic) [Example 37, (RS)-2-(5-chloro-1,4-dihydro-indeno[1,2-b]pyrrol-1-yl)-1-methyl-ethylaminefumarate (1:0.5)] | – | – | – | Ki (human-5HT1A receptors): 4.79 µM; Ki (5HT2A receptor [3]): 0.309 µM; Ki (5HT2C receptor [4]; [6]): 0.0355 µM
5 | Cc1cccc2c1Cc1ccn(CC(C)N)c1-2 (racemic) [Example 50, (RS)-2-(5-methyl-1,4-dihydro-indeno[1,2-b]pyrrol-1-yl)-1-methyl-ethylaminefumarate (1:0.5)] | – | – | – | Ki (human-5HT1A receptors; human 5HT1A, [3H]-5-HT (1 nM), 3T3 cell membranes, Method II, read-out: pki, test method a (converted)): 2.4 µM; Ki (5HT2A receptor [3]): 0.447 µM; Ki (5HT2C receptor [4]): 0.107 µM
6 | CC(N)Cn1ccc2c1-c1ccc(Cl)cc1C2 (racemic) [Example 53, (RS)-2-(6-chloro-1,4-dihydro-indeno[1,2-b]pyrrol-1-yl)-1-methyl-ethylaminefumarate (1:0.5)] | 1.1 | 0.308 | 11.3 | –
7 | COc1ccc2c(c1)Cc1ccn(CC(C)N)c1-2 (racemic) [Example 55, (RS)-2-(6-methoxy-1,4-dihydro-indeno[1,2-b]pyrrol-1-yl)-1-methyl-ethylamine fumarate (1:0.5)] | 1.26 | 0.371 | 8.35 | –
8 | CC(N)Cn1ccc2c1-c1ccccc1SC2 (racemic) [Example 64] | 0.384 | – | 0.773 | IC50 (5HT2C receptor [1]; [5]): 0.0854 µM
9 | COc1cccc2c1-c1c(ccn1CC(C)N)C2 (racemic) [Example 67, (RS)-2-(8-methoxy-1,4-dihydro-indeno[1,2-b]pyrrol-1-yl)-1-methyl-ethylamine fumarate (1:0.5)] | 1.75 | 0.146 | 1.07 | –
10 | CC(N)Cn1ccc2c1-c1ccccc1C2c1ccccc1 (racemic) [Example 69, (2RS/4RS)-2-(4-phenyl-1,4-dihydro-indeno[1,2-b]pyrrol-1-yl)-1-methyl-ethylamine fumarate (1:0.86)] | 3.46 | 0.143 | 0.854 | –
11 | O=c1ccc2[nH]cc(C3=CCNCC3)c2[nH]1 [CP 93129, reference compound] | 1.62 | – | 29.2 | –
12 | COc1ccc2ccc3ccn(C[C@H](C)N)c3c2c1 [Example 7, (S)-2-(8-methoxy-1H-benz[g]indol-1-yl)-1-methyl-ethylamine fumarate (1:0.5)] | 2.16 | 0.024 | 1.2 | –
13 | CCc1ccc2c(c1)-c1c(ccn1C[C@H](C)N)C2(C)C [Example 8, (S)-2-(7-ethyl-4,4-dimethyl-1,4-dihydro-indeno[1,2-b]pyrrol-1-yl)-1-methyl-ethylamine fumarate (1:1)] | – | – | – | Ki (human-5HT1A receptors): 4.57 µM; Ki (5HT2A receptor [3]): 0.0661 µM; Ki (5HT2C receptor [4]; [6]): 0.00234 µM
14 | COc1ccc2c(c1)-c1c(ccn1CCN)C2 [Example 23, 2-(7-methoxy-1,4-dihydro-indeno[1,2-b]pyrrol-1-yl)-ethylamine fumarate (1:1)] | 0.347 | 0.0452 | 3.34 | –
15 | COc1ccc2c(c1)-c1c(ccn1C[C@@H](C)N)C2 [Example 28, (R)-2-(7-methoxy-1,4-dihydro-indeno[1,2-b]pyrrol-1-yl)-1-methyl-ethylaminefumarate (1:0.5)] | 1.07 | 0.0787 | 1.63 | –
16 | COc1ccc2c(c1)-c1c(ccn1C[C@@H](C)N)CC2 [Example 30, (R)-2-(4,5-dihydro-8-methoxy-1H-benz[g]indol-1-yl)-1-methyl-ethylamine fumarate (1:1)] | 0.298 | 0.0581 | 0.479 | –
17 | COc1ccc2ccc3ccn(C[C@@H](C)N)c3c2c1 [Example 31, (R)-2-(8-methoxy-1H-benz[g]indol-1-yl)-1-methyl-ethylamine fumarate (1:0.5)] | 0.337 | 0.0281 | 0.874 | –
18 | COc1ccc2ccc3ccn(CCN)c3c2c1 [Example 32, 2-(8-methoxy-1H-benz[g]indol-1-yl)-ethylamine fumarate (1:1)] | 0.139 | 0.018 | 1.67 | –
19 | COc1ccc2c(c1)-c1c(ccn1C(C)(C)N)CO2 [Example 54, (RS)1-(8-methoxy-1,4-dihydro[1]benzopyrano[4,3b]pyrrol1-yl)-1-methyl-ethylamine] | 0.825 | – | – | IC50 (5HT2C receptor [1]; [5]): 0.116 µM; IC50 (5HT2A receptor [2]; 5HT2A, 3H-ketanserine, Method I, read-out: IC50, test method c): 2.59 µM
20 | COc1ccc2c(c1)-c1c(ccn1CCN)CC2 [Example 59, 2-(4,5-dihydro-8-methoxy-1H-benz[g]indol-1-yl)-ethylamine fumarate (1:1)] | 0.097 | 0.0238 | 1.51 | –
21 | CN1C[C@H](CNC(=O)OCc2ccccc2)C[C@@H]2c3cccc4c3c(cn4C)C[C@H]21 [Metergoline, reference compound] | – | 0.0055 | – | –
22 | COc1ccccc1N1CCN(CCCCN2C(=O)c3ccccc3C2=O)CC1 [NAN-190, reference compound] | 0.00056 | 1.8 | 0.581 | –
23 | Cc1nc2ccccn2c(=O)c1CCN1CCC(C(=O)c2ccc(F)cc2)CC1 [Pirenperone, reference compound] | 2.88 | 0.037 | 0.0029 | –
24 | COc1ccc2[nH]cc(C3=CCNCC3)c2c1 [RU 24969, reference compound] | 0.008 | – | – | –
25 | Cc1nc2sccn2c(=O)c1CCN1CCC(=C(c2ccc(F)cc2)c2ccc(F)cc2)CC1 [Ritanserine, reference compound] | – | 0.037 | – | –
26 | Clc1cccc(N2CCNCC2)c1 [mCPP, reference compound] | 0.227 | – | 0.319 | IC50 (5HT2C receptor [1]; [5]): 0.053 µM
